Data taken from patent US20060084135A1, “Compositions for manipulating the lifespan and stress response of cells and organisms” (priority 2003, published 2006).
Structures can show the parent of a compound that is named as a salt.

Target: T1, recombinant human SIRT1 (Homo sapiens, UniProt Q96EB6)
T1 sequence (Q96EB6 1-747): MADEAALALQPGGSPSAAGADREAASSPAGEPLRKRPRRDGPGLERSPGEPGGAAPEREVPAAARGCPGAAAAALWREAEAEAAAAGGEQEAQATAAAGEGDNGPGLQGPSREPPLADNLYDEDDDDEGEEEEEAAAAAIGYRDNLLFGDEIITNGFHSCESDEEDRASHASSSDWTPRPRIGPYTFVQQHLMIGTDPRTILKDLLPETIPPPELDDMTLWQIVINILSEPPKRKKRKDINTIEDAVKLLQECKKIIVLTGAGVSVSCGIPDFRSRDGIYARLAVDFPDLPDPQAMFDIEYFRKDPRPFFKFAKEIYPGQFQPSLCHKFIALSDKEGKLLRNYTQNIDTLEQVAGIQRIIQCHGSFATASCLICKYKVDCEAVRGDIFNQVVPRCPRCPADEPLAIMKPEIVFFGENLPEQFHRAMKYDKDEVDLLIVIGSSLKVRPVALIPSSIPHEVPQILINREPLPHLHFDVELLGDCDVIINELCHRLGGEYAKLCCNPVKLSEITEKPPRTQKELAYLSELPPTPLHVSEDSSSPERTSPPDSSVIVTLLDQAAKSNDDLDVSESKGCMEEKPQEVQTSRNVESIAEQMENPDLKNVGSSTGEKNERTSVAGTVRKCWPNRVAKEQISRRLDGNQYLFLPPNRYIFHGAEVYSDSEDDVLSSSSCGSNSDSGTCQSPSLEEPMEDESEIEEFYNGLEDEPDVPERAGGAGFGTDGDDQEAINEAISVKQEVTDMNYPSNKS
Assay: SIRT1 fluorescent deacetylation assay (p53-382 acetylated peptide substrate)
Format: biochemical
Conditions: for Ratio to Control Rate Mean ± SE: 25 μM NAD+, 25 μM p53-382 acetylated peptide; for SIRT1 stimulating activity (in words): polyphenol screen

[1] = Supplementary Table 6, free radical protective compounds, 100 μM
[2] = Supplementary Table 1, stilbenes and chalcones, 100 μM
[3] = Table 12, resveratrol analogs, 100 μM
[4] = Supplementary Table 4, isoflavones, flavanones, anthocyanidins, 100 μM
[5] = Supplementary Table 3, flavones part II, 100 μM
[6] = Supplementary Table 2, flavones part I, 100 μM
[7] = Table 11, resveratrol analogs, 100 μM
[8] = Table 13, resveratrol analogs, 100 μM
[9] = Table 9, resveratrol analogs, 100 μM
[10] = Table 10, resveratrol analogs, 100 μM
[11] = Supplementary Table 8, compound at 10 μM

## Cc1c(C)c2c(c(C)c1O)CCC(C)(CN1CCN(c3cc(N4CCCC4)nc(N4CCCC4)n3)CC1)O2.Cl.Cl (single isomer, unassigned; (-)) [Compound U-83836E, (−)-2-((4-(2,6-di-1-Pyrrolidinyl-4-pyrimidinyl)-1-piperazinyl)methyl)-3,4-dihydro-2,5,7,8-tetramethyl-2H-1-benzopyran-6-ol-2HCl, reference compound]
[1]
  Ratio to Control Rate Mean ± SE: 1.030 ± 0.055

## O=C(/C=C/c1ccc(O)c(O)c1)c1c(O)cc(O)cc1O [3,4,2′,4′,6′-Pentahydroxychalcone]
[2]
  Ratio to Control Rate Mean ± SE: 2.80 ± 0.32

## Oc1ccc(/C=C/c2ccccc2)cc1O [3,4-Dihydroxy-trans-stilbene]
[3]
  Ratio to Control Rate Mean ± SE: 1.64 ± 0.10

## COc1ccc(/C=C/c2ccccc2)cc1OC [3,4-Dimethoxy-trans-stilbene]
[3]
  Ratio to Control Rate Mean ± SE: 1.127 ± 0.019

## O=C1c2c(O)cc(O)cc2OC(c2ccc(O)c(O)c2)C1O (stereo not drawn) [3,5,7,3′,4′-Pentahydroxyflavanone]
[4]
  Ratio to Control Rate Mean ± SE: 1.97 ± 0.22

## O=c1c(O)c(-c2cccc(O)c2O)oc2ccc(O)cc12 [3,6,2′,3′-Tetrahydroxyflavone]
[5]
  Ratio to Control Rate Mean ± SE: 1.74 ± 0.27

## O=c1c(O)c(-c2ccc(O)cc2O)oc2ccc(O)cc12 [3,6,2′,4′-Tetrahydroxyflavone]
[6]
  Ratio to Control Rate Mean ± SE: 2.10 ± 0.22

## O=c1c(O)c(-c2ccc(O)c(O)c2)oc2ccc(O)cc12 [3,6,3′,4′-Tetrahydroxyflavone]
[6]
  Ratio to Control Rate Mean ± SE: 5.45 ± 0.57

## O=c1c(O)c(-c2cc(O)c(O)c(O)c2)oc2cc(O)ccc12 [3,7,3′,4′,5′-Pentahydroxyflavone]
[5]
  Ratio to Control Rate Mean ± SE: 0.826 ± 0.074

## Oc1cccc(/C=C/c2ccccc2)c1 [3-Hydroxystilbene]
[7]
  Ratio to Control Rate Mean ± SE: 2.357 ± 0.074

## Oc1ccc(/C=C/c2ccccc2)cc1 [4-Hydroxy-trans-stilbene]
[8]
  Ratio to Control Rate Mean ± SE: 0.943 ± 0.039

## COc1ccc(/C=C/c2ccccc2)cc1 [4-Methoxy-trans-stilbene]
[8]
  Ratio to Control Rate Mean ± SE: 0.840 ± 0.089

## O=c1cc(-c2ccc(O)cc2)oc2ccccc12 [4′-Hydroxyflavone]
[5]
  Ratio to Control Rate Mean ± SE: 1.73 ± 0.12

## O=c1cc(-c2ccc(O)cc2)oc2cccc(O)c12 [5,4′-Dihydroxyflavone]
[5]
  Ratio to Control Rate Mean ± SE: 1.56 ± 0.15

## O=c1cc(-c2cc(O)c(O)c(O)c2)oc2cc(O)cc(O)c12 [5,7,3′4′,5′-Pentahydroxyflavone]
[6]
  Ratio to Control Rate Mean ± SE: 6.05 ± 0.98

## O=c1c(-c2ccc(O)cc2)coc2cc(O)cc(O)c12 [5,7,4′-Trihydroxyisoflavone]
[4]
  Ratio to Control Rate Mean ± SE: 1.109 ± 0.026
  SIRT1 stimulating activity (in words): absence of activity

## O=c1cc(-c2ccccc2)oc2cc(O)cc(O)c12 [5,7-Dihydroxyflavone]
[5]
  Ratio to Control Rate Mean ± SE: 1.51 ± 0.18

## O=c1cc(-c2ccccc2)oc2cccc(O)c12 [5-Hydroxyflavone]
[5]
  Ratio to Control Rate Mean ± SE: 1.22 ± 0.19

## O=c1cc(-c2ccc(O)cc2)oc2cc(O)c(O)c(O)c12 [6-Hydroxyapigenin, 5,6,7,4′-Tetrahydroxyflavone]
[6]
  Ratio to Control Rate Mean ± SE: 3.06 ± 0.29

## O=c1cc(-c2cc(O)c(O)c(O)c2)oc2cc(O)ccc12 [7,3′,4′,5′-Tetrahydroxyflavone]
[6]
  Ratio to Control Rate Mean ± SE: 3.62 ± 0.56

## O=c1cc(-c2ccc(O)cc2)oc2cc(O)ccc12 [7,4′-Dihydroxyflavone]
[6]
  Ratio to Control Rate Mean ± SE: 1.91 ± 0.17

## O=c1c(O)c(-c2ccc(O)cc2)oc2c(O)c(O)ccc12 [7,8,3,4′-Tetrahydroxyflavone]
[5]
  Ratio to Control Rate Mean ± SE: 1.91

## O=C(O[C@@H]1Cc2c(O)cc(O)cc2O[C@@H]1c1cc(O)c(O)c(O)c1)c1cc(O)c(O)c(O)c1 [(−)-Epigallocatechin Gallate]
Supplementary Table 5, catechins, 100 μM
  Ratio to Control Rate Mean ± SE: 0.32 ± 0.12

## Nc1c(Br)cc(Br)cc1CN[C@H]1CC[C@H](O)CC1 [Ambroxol, trans-4-(2-Amino-3,5-dibromobenzylamino)cyclohexane.HCl, reference compound]
[1]
  Ratio to Control Rate Mean ± SE: 1.075 ± 0.0026

## O=c1cc(-c2ccc(O)cc2)oc2cc(O)cc(O)c12 [Apigenin, 5,7,4′-Trihydroxyflavone]
[6]
  Ratio to Control Rate Mean ± SE: 2.77 ± 0.40

## Oc1cc(O)cc(/C=C/c2ccc3ccccc3c2)c1 [BML-218, (E)-1-(3,5-Dihydroxyphenyl)-2-(2-napthyl) ethene]
[7]
  Ratio to Control Rate Mean ± SE: 3.05 ± 0.37

## O=C(Nc1ccccc1)c1cc(O)cc(O)c1 [BML-219, N-phenyl-(3,5-dihydroxy)benzamide]
[8]
  Ratio to Control Rate Mean ± SE: 0.902 ± 0.014

## CC(=O)Nc1ccc(/C=C/c2cc(O)cc(O)c2)cc1 [BML-222, 3,5-Dihydroxy-4′-acetamide-trans-stilbene]
[3]
  Ratio to Control Rate Mean ± SE: 1.88 ± 0.11

## Oc1cc(O)cc(/C=C/C2CCCCC2)c1 [BML-224, (E)-1-(3,5-Dihydroxyphenyl)-2-(cyclohexyl) ethene]
[3]
  Ratio to Control Rate Mean ± SE: 1.297 ± 0.042

## CCc1ccc(/C=C/c2cc(O)cc(O)c2)cc1 [BML-225, 3,5-Dihydroxy-4′-ethyl-trans-stilbene]
[9]
  Ratio to Control Rate Mean ± SE: 9.373 ± 0.014

## COCOc1cc(/C=C/c2ccc(SC)cc2)cc(OCOC)c1 [BML-226, 3,5-Dimethoxymethoxy-4′-thiomethyl-trans-stilbene]
[3]
  Ratio to Control Rate Mean ± SE: 2.316 ± 0.087

## CC(=O)Oc1cc(O)cc(/C=C/c2ccc(O)cc2)c1 [BML-227, 3,4′-Dihydroxy-5-acetoxy-trans-stilbene]
[7]
  Ratio to Control Rate Mean ± SE: 3.340 ± 0.093

## Cc1ccc(/C=C/c2cc(O)cc(O)c2)cc1 [BML-228, 3,5-Dihydroxy-4′-methyl-trans-stilbene]
[9]
  Ratio to Control Rate Mean ± SE: 7.72 ± 0.12

## O=[N+]([O-])c1ccc(/C=C/c2cc(O)cc(O)c2)cc1 [BML-229, 3,5-Dihydroxy-4′-nitro-trans-stilbene]
[10]
  Ratio to Control Rate Mean ± SE: 6.78 ± 0.22

## CSc1ccc(/C=C/c2cc(O)cc(O)c2)cc1 [BML-230, 3,5-Dihydroxy-4′-thiomethyl-trans-stilbene]
[10]
  Ratio to Control Rate Mean ± SE: 6.84 ± 1.26

## CC(C)c1ccc(/C=C/c2cc(O)cc(O)c2)cc1 [BML-231, 3,5-Dihydroxy-4′-isopropyl-trans-stilbene]
[10]
  Ratio to Control Rate Mean ± SE: 6.01 ± 0.15

## [N-]=[N+]=Nc1ccc(/C=C/c2cc(O)cc(O)c2)cc1 [BML-232, 3,5-Dihydroxy-4′-azido-trans-stilbene]
[10]
  Ratio to Control Rate Mean ± SE: 7.24 ± 0.12
  SIRT1 stimulating activity (in words): very similar SIRT1 activating properties to resveratrol

## O=C(/C=C/c1ccc(O)c(O)c1)Oc1ccccc1 [Caffeic Acid Phenyl Ester]
[1]
  Ratio to Control Rate Mean ± SE: 1.80 ± 0.16

## O=C(/C=C/c1ccccc1)c1ccccc1 [Chalcone]
[2]
  Ratio to Control Rate Mean ± SE: 1.34 ± 0.17

## O=c1oc2cc(O)ccc2c2oc3cc(O)ccc3c12 [Coumestrol]
[11]
  Ratio to Control Rate Mean ± SE: 2.30 ± 0.31

## Oc1cc(O)c2cc(O)c(-c3ccc(O)c(O)c3)[o+]c2c1.[Cl-] [Cyanidin chloride, 3,5,7,3′,4′-Pentahydroxyflavylium chloride]
[4]
  Ratio to Control Rate Mean ± SE: 0.451 ± 0.015

## O=c1c(-c2ccc(O)cc2)coc2cc(O)ccc12 [Daidzein, 7,4′-Dihydroxyisoflavone]
[4]
  Ratio to Control Rate Mean ± SE: 2.28 ± 0.74

## Oc1cc(O)c2cc(O)c(-c3cc(O)c(O)c(O)c3)[o+]c2c1.[Cl-] [Delphinidin chloride, 3,5,7,3′,4′,5′-Hexahydroxyflavylium chloride]
[4]
  Ratio to Control Rate Mean ± SE: 0.4473 ± 0.0071

## COc1ccc(/C=C/c2cc(O)cc(O[C@@H]3O[C@H](CO)[C@@H](O)[C@H](O)[C@H]3O)c2)cc1 [Deoxyrhapontin, 3,5-Dihydroxy-4′-methoxystilbene 3-O-β-D-glucoside]
[2]
  Ratio to Control Rate Mean ± SE: 1.94 ± 0.21

## Oc1ccc(CCc2cc(O)cc(O)c2)cc1 [Dihydroresveratrol, 1-(3,5-Dihydroxyphenyl)-2-(4-hydroxyphenyl) ethane]
[8]
  Ratio to Control Rate Mean ± SE: 1.08 ± 0.14

## O=c1ccc2cc(O)c(O)cc2o1 [Esculetin]
[11]
  Ratio to Control Rate Mean ± SE: 1.737 ± 0.082

## O=C1CC(c2ccccc2)Oc2ccccc21 (stereo not drawn) [Flavanone]
[4]
  Ratio to Control Rate Mean ± SE: 1.92 ± 0.24

## O=c1cc(-c2ccccc2)oc2ccccc12 [Flavone]
[5]
  Ratio to Control Rate Mean ± SE: 1.41 ± 0.23

## O=c1c(O)c(-c2ccc(O)c(O)c2)oc2c(O)c(O)cc(O)c12 [Gossypetin, 3,5,7,8,3′,4′-Hexahydroxyflavone]
[5]
  Ratio to Control Rate Mean ± SE: 0.723 ± 0.062
